Results reported in PubChem BioAssay (NCI).
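Grown in 96-well plates, cells were treated for 48 hours with each compound at five concentrations. Insufficient inhibition: endpoint recorded as highest concentration tested. GI50 marks 50% less growth. TGI: total growth inhibition.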

Legend:
Assay in all cases: NCI tumour cell line growth inhibition, 48 h
[1] = tested on: HCC-2998 colon
[2] = tested on: NCI-H522 lung
[3] = tested on: HCT-15 colon
[4] = tested on: NCI-H226 lung
[5] = tested on: RXF 393 renal
[6] = tested on: MOLT-4 leukemia
[7] = tested on: SF-268 CNS
[8] = tested on: SNB-75 CNS
[9] = tested on: U251 CNS
[10] = tested on: RPMI-8226 leukemia

Compound: CSC(SC)=C(C(=O)O)P(=O)(O)O
- TGI [1]: > 100 µM
- TGI [2]: > 100 µM
- TGI [3]: > 100 µM
- TGI [4]: > 100 µM
- TGI [5]: > 100 µM
- TGI [6]: > 100 µM
- TGI [7]: > 100 µM

Compound: CC(C)C(CC(=O)OCC(CO)OC(=O)CC(C(C)C)C(C)C)C(C)C (stereo not given)
- TGI [8]: 21.8 µM
- TGI [1]: 30.9 µM
- TGI [2]: 25.6 µM
- TGI [3]: 30.7 µM
- TGI [4]: 30.1 µM
- TGI [5]: 30.8 µM
- TGI [6]: 31.5 µM
- TGI [7]: 27.6 µM
- TGI [9]: 30.9 µM

Compound: O=C1N=C2SC(=S)NC(=S)N2NC12c1ccccc1-c1ccccc12
- TGI [8]: > 10 µM
- TGI [1]: > 10 µM
- TGI [3]: > 10 µM
- TGI [10]: > 10 µM
- TGI [6]: > 10 µM
- TGI [7]: > 10 µM
- TGI [9]: > 10 µM

Compound: CSc1nc(NC(C)C)c2c(n1)Sc1nc3ccccc3n1N=C2
- TGI [1]: 25.3 µM
- TGI [2]: 50.5 µM
- TGI [3]: > 100 µM
- TGI [10]: > 100 µM
- TGI [4]: > 100 µM
- TGI [6]: > 100 µM
- TGI [7]: > 100 µM
- TGI [9]: 29.9 µM

Compound: COc1cccc2c1C(=O)c1c(O)c3c(c(O)c1C2=O)C[C@H](O)C[C@@H]3OC1CC(N)C(O)C(C)O1 (stereo not given in full)
- TGI [8]: 15.3 µM
- TGI [2]: 5.86 µM
- TGI [3]: 58 µM
- TGI [10]: 8.8 µM
- TGI [4]: 2.81 µM
- TGI [5]: 25 µM
- TGI [6]: 0.144 µM
- TGI [7]: 10.6 µM

Compound: COC(=O)C1C(C(=O)OC)C2(OC(c3ccc(Cl)cc3)=CC2=O)C12OC(c1ccc(Cl)cc1)=CC2=O (stereo not given)
- TGI [1]: 36.8 µM
- TGI [2]: 36.1 µM
- TGI [3]: 35.2 µM
- TGI [10]: 37.2 µM
- TGI [4]: > 100 µM
- TGI [5]: 33.2 µM
- TGI [6]: 49.2 µM
- TGI [7]: 73.5 µM
- TGI [9]: > 100 µM

Compound: COc1ccccc1CN=C1Nc2ccncc2S(=O)(=O)N1c1ccccc1
- TGI [1]: > 100 µM
- TGI [2]: > 100 µM
- TGI [3]: > 100 µM
- TGI [10]: > 100 µM
- TGI [4]: > 100 µM
- TGI [5]: > 100 µM
- TGI [6]: > 100 µM
- TGI [9]: > 100 µM

Compound: N#C/C(C(=O)Nc1ccc(Cl)cc1)=C(/N)N1CCCC1
- TGI [8]: > 100 µM
- TGI [1]: > 100 µM
- TGI [3]: > 100 µM
- TGI [10]: > 100 µM
- TGI [4]: > 100 µM
- TGI [6]: > 100 µM
- TGI [9]: > 100 µM

Compound: CN(C)CC1CCC/C(=C\c2ccc(OC(=O)c3ccc(Cl)cc3)cc2)C1=O (stereo not given)
- TGI [8]: 9.16 µM
- TGI [1]: > 29 µM
- TGI [3]: 3.3 µM
- TGI [10]: 1.99 µM
- TGI [4]: 9.77 µM
- TGI [6]: 3.19 µM
- TGI [7]: 9.07 µM
- TGI [9]: 3.08 µM

Compound: N#C/C(=C/n1c(=S)[nH]c2ccc([N+](=O)[O-])cc21)C(N)=O
- TGI [8]: > 100 µM
- TGI [3]: > 100 µM
- TGI [10]: > 100 µM
- TGI [4]: > 100 µM
- TGI [5]: > 100 µM
- TGI [6]: > 100 µM
- TGI [7]: > 100 µM
- TGI [9]: > 100 µM

Compound: NC(=O)c1csc(C2(O)COC(CO)C2O)n1 (stereo not given)
- TGI [8]: > 100 µM
- TGI [1]: > 100 µM
- TGI [2]: > 100 µM
- TGI [3]: > 100 µM
- TGI [10]: > 100 µM
- TGI [4]: > 100 µM
- TGI [5]: > 100 µM
- TGI [7]: > 100 µM
- TGI [9]: > 100 µM

Compound: CC1=NN(c2nc(N)nc(-c3sccc3N)n2)C(C)(C)C1
- TGI [8]: > 100 µM
- TGI [1]: > 100 µM
- TGI [2]: > 100 µM
- TGI [3]: > 100 µM
- TGI [10]: 70.9 µM
- TGI [4]: > 100 µM
- TGI [6]: > 100 µM
- TGI [7]: > 100 µM
- TGI [9]: > 100 µM

Compound: O=C1C=CC(=O)N1n1c(-c2ccccc2)n[nH]c1=O
- TGI [1]: > 100 µM
- TGI [2]: > 100 µM
- TGI [3]: > 100 µM
- TGI [4]: > 100 µM
- TGI [5]: > 100 µM
- TGI [6]: > 100 µM
- TGI [7]: > 100 µM
- TGI [9]: > 100 µM

Compound: CCn1c2ccc(C(=O)CCCN3CCCCC3)cc2c2cc(C(=O)CCCN3CCCCC3)ccc21
- TGI [8]: 8.26 µM
- TGI [1]: 23.8 µM
- TGI [2]: 4.05 µM
- TGI [3]: 5.45 µM
- TGI [10]: 4.7 µM
- TGI [4]: 27.2 µM
- TGI [5]: 7.31 µM
- TGI [7]: 18.6 µM
- TGI [9]: 4.73 µM

Compound: O=C(OCCN=c1c2ccccc2ccc2ccccc12)c1ccccc1
- TGI [8]: > 100 µM
- TGI [1]: > 100 µM
- TGI [3]: > 100 µM
- TGI [10]: > 100 µM
- TGI [4]: > 100 µM
- TGI [5]: > 100 µM
- TGI [6]: > 100 µM
- TGI [7]: > 100 µM
- TGI [9]: > 100 µM

Compound: COC(=O)C1=C(C(=O)OC)SC(=CC#CC=C2SC(C(=O)OC)=C(C(=O)OC)S2)S1
- TGI [8]: 19.3 µM
- TGI [1]: > 100 µM
- TGI [2]: 54.8 µM
- TGI [3]: > 45.1 µM
- TGI [10]: > 100 µM
- TGI [4]: 35.4 µM
- TGI [6]: > 100 µM
- TGI [7]: > 60.1 µM
- TGI [9]: 33.1 µM

Compound: C=C(C)OCOCCOC
- TGI [8]: > 100 µM
- TGI [1]: > 100 µM
- TGI [2]: > 100 µM
- TGI [3]: > 100 µM
- TGI [10]: > 100 µM
- TGI [4]: > 100 µM
- TGI [6]: > 100 µM
- TGI [7]: > 100 µM
- TGI [9]: > 100 µM

Compound: C=C1C(OC2O[C@@H]3O[C@@]4(C)CC[C@H]5[C@H](C)CC[C@@H](C2=C)[C@@]35O4)O[C@@H]2O[C@@]3(C)CC[C@H]4[C@H](C)CC[C@@H]1[C@@]24O3 (stereo not given in full)
- TGI [1]: > 50 µM
- TGI [2]: > 50 µM
- TGI [3]: > 50 µM
- TGI [10]: > 50 µM
- TGI [4]: > 50 µM
- TGI [5]: > 50 µM
- TGI [6]: > 50 µM
- TGI [7]: > 50 µM
- TGI [9]: > 50 µM

Compound: O=c1c(Cc2ccc(Cl)cc2)nnc2sc(-c3ccc(-c4ccc(F)c(Cl)c4)o3)nn12
- TGI [1]: > 100 µM
- TGI [2]: > 100 µM
- TGI [3]: > 100 µM
- TGI [10]: > 100 µM
- TGI [4]: > 100 µM
- TGI [5]: > 100 µM
- TGI [6]: > 100 µM
- TGI [7]: > 100 µM
- TGI [9]: > 100 µM

Compound: C=C1OC(c2ccccc2NC)=NC12CCCCC2
- TGI [1]: > 100 µM
- TGI [2]: > 100 µM
- TGI [3]: > 100 µM
- TGI [4]: > 100 µM
- TGI [5]: > 100 µM
- TGI [6]: > 100 µM
- TGI [7]: > 100 µM
- TGI [9]: > 100 µM

Compound: CN(C)/N=C(/c1nc2ccc(Cl)cc2[nH]c1=O)C(O)c1ccc(C(O)/C(=N\N(C)C)c2nc3ccc(Cl)cc3[nH]c2=O)cc1 (stereo not given)
- TGI [1]: > 100 µM
- TGI [2]: > 100 µM
- TGI [10]: > 100 µM
- TGI [5]: > 100 µM
- TGI [6]: > 100 µM
- TGI [7]: > 100 µM

Compound: COc1cc(-c2n/c(=C\c3c(O)[nH]c4ccc(Cl)cc34)cc3c2=Nc2ccccc2-3)ccc1F
- GI50 [8]: 1.69 µM
- TGI [8]: 4.6 µM
- GI50 [1]: 2.94 µM
- TGI [1]: 8.81 µM
- GI50 [3]: 2.49 µM
- TGI [3]: 6.98 µM
- GI50 [10]: 6.75 µM
- TGI [10]: > 100 µM
- GI50 [4]: 2.19 µM
- TGI [4]: 8.15 µM
- GI50 [5]: 1.71 µM
- TGI [5]: 3.29 µM
- GI50 [6]: 1.08 µM
- TGI [6]: 3.32 µM
- GI50 [7]: 2.05 µM
- TGI [7]: 4.65 µM
- GI50 [9]: 1.58 µM
- TGI [9]: 3.06 µM

Compound: Cc1cc(S(=O)(=O)/N=C(/C(=C=[N-])C#N)[n+]2ccc(N(C)C)cc2)c(SCC(=O)O)cc1Cl
- TGI [1]: > 100 µM
- TGI [2]: > 100 µM
- TGI [3]: > 100 µM
- TGI [10]: > 100 µM
- TGI [4]: > 100 µM
- TGI [5]: > 100 µM
- TGI [6]: > 100 µM
- TGI [7]: > 100 µM
- TGI [9]: > 100 µM
